{"source": "paper PMC9148066", "about": "“The Medicinal Halophyte Frankenia laevis L. (Sea Heath) Has In Vitro Antioxidant Activity, α-Glucosidase Inhibition, and Cytotoxicity towards Hepatocarcinoma Cells” (Plants, 2022)", "key": {"HepG2 cells [1]": {"test_system": "HepG2 cells", "assay": "Cellular viability assay (MTT), HepG2", "assay_type": "cell-based", "conditions": "Homo sapiens, 72 h, read-out: HepG2 cytotoxic activity EC50", "description": "(§1) The HepG2 (human hepatocellular carcinoma) and S17 (murine bone marrow stromal) cell lines were maintained in Dulbecco’s modified eagle medium (DMEM) culture medium supplemented with 10% heat-inactivated fetal bovine serum (FBS), 1% L-glutamine (2 mM), and 1% penicillin (50 U/mL)/streptomycin (50 μg/mL) and were maintained at 37 °C in humidified atmosphere with 5% CO2.\n(§2) HepG2 and S17 cells were plated in 96-well tissue plates at a density of 5 × 10^3 cells/well and were incubated for 24 h. Then, the extracts were applied at several concentrations (3.125, 6.25, 12.5, 25, 50 and 100 µg/mL) for 72 h. The 3-(4,5-dimethylthiazol-2-yl)-2,5-diphenyltetrazolium bromide (MTT) colorimetric test was used to determine the cellular viability (Biotek Synergy 4), as formerly detailed. […] The selectivity index (SI) was obtained by dividing the EC50 value of non-tumoral cells (S17) by the EC50 of tumoral cells (HepG2)."}, "[2]": {"assay": "Cellular viability assay (MTT), S17", "assay_type": "cell-based", "conditions": "mouse, S17 bone marrow stromal cells (non-tumoral), read-out: S17 cytotoxic activity EC50", "description": "as §1, §2"}, "RSA on DPPH radical": {"assay": "RSA on DPPH radical", "conditions": "DPPH 120 µM, 30 min", "description": "(§3) The absorbance was measured in a microplate reader (Biotek Synergy 4), and the activity was calculated as a percentage of inhibition, relative to a control containing DMSO in place of the sample.\n(§4) The extracts were tested on DPPH and ABTS, as described elsewhere. The samples were mixed with radical solutions (DPPH: 120 µM; ABTS: 7.4 mM) in 96-well flat-bottom microtitration plates and were incubated in darkness at RT for 30 and 6 min, respectively. The synthetic antioxidant BHT (E320), used as a preservative in food and cosmetics, was used as a positive control at the same concentrations of the samples. The absorbance was measured at 517 and 734 nm for DPPH and ABTS, respectively."}, "RSA on ABTS radical": {"assay": "RSA on ABTS radical", "conditions": "ABTS 7.4 mM, 6 min", "description": "as §3, §4"}, "[3]": {"test_system": "human lung carcinoma cells (A549)", "design": "method as in PMID 19471192", "conditions": "cited from earlier work"}, "HepG2 cells [4]": {"test_system": "HepG2 cells", "conditions": "cited from earlier work"}, "α-glucosidase": {"molecular_target": "α-glucosidase", "design": "method as in doi:10.1016/j.sajb.2020.01.011", "conditions": "cited from earlier work"}, "[5]": {"assay": "Copper chelating activity (CCA)", "conditions": "pyrocatechol violet, CuSO4", "procedure": "(§5) The CCA and ICA of the extracts and the positive control (EDTA) were assessed in 96-well microplates according to the methods described in Rodrigues et al. [53]. For CCA, the samples were mixed with 50 mM Na acetate buffer (pH 6), 4 mM pyrocatechol violet, and 50 µg/mL CuSO4 solution. For ICA, the samples were mixed with distilled water and 0.1 mg/mL FeCl2 solution. After 30 min, a 40 mM ferrozine solution was added. The change in absorbance was measured at 632 and 562 nm for CCA and ICA, correspondingly."}, "[6]": {"assay": "Iron chelating activity (ICA)", "conditions": "FeCl2, ferrozine", "procedure": "as §5"}}, "note": "Marks after values point to notes of the source that are not given here."}
{"molecule": "COc1cc([C@@H]2c3cc4c(cc3[C@@H](O[C@@H]3O[C@@H]5CO[C@@H](C)O[C@H]5[C@H](O)[C@H]3O)[C@H]3COC(=O)[C@H]23)OCO4)cc(OC)c1O", "note": "[etoposide]", "values": [{"measurement": "EC50", "setting": "HepG2 cells [1]", "result": "1.45 ± 0.15", "unit": "µg/mL"}, {"measurement": "EC50 at 72 h", "setting": "[2]", "result": "7.86 ± 0.25", "unit": "µg/mL"}]}
{"molecule": "Cc1cc(C(C)(C)C)c(O)c(C(C)(C)C)c1", "note": "[BHT, butylated hydroxytoluene]", "values": [{"measurement": "RSA-DPPH EC50", "setting": "RSA on DPPH radical", "result": "0.11 ± 0.00 ^a mg/mL"}, {"measurement": "RSA-ABTS EC50", "setting": "RSA on ABTS radical", "result": "0.06 ± 0.00 ^a mg/mL"}]}
{"molecule": "CC1(C)CCCC2(C)OC(=O)C=C12", "note": "(centres unmarked) [Dihydroactinidiolide]", "values": [{"measurement": "Cytotoxic effect on A549", "setting": "[3]", "result": "strong cytotoxic effect"}]}
{"molecule": "CC1(C)C[C@H](O)C[C@]2(C)OC(=O)C=C12", "note": "[isololiolide, Isololiolide]", "values": [{"measurement": "Cytotoxicity against HepG2 cells", "setting": "HepG2 cells [4]", "result": "selective cytotoxicity"}]}
{"molecule": "CC1(C)C[C@H](O)C[C@@]2(C)OC(=O)C=C12", "note": "[Loliolide]", "values": [{"measurement": "α-glucosidase EC50", "setting": "α-glucosidase; approx. equivalent of the µM value", "result": "approx. 76 µg/mL"}, {"measurement": "EC50", "setting": "α-glucosidase", "result": 388, "unit": "µM"}, {"measurement": "Cytotoxicity against HepG2 cells", "setting": "HepG2 cells [4]", "result": "selective cytotoxicity"}]}
{"molecule": "O=C(O)CN(CCN(CC(=O)O)CC(=O)O)CC(=O)O", "note": "[EDTA, ethylenediamine tetraacetic acid]", "values": [{"measurement": "CCA EC50", "setting": "[5]", "result": "0.17 ± 0.00 ^a mg/mL"}, {"measurement": "ICA EC50", "setting": "[6]", "result": "0.06 ± 0.00 ^a mg/mL"}]}
